As usually defined, the pKa is the pH at which an ionisable group is half protonated. Read a high pKa as a group that holds its proton tightly. With `CCC(C)NCc1cccc(S(=O)(=O)c2csc(S(N)(=O)=O)c2)c1.Cl` (configuration not stated), the pKa was determined as 7.45. `CCOC(=O)c1ccc(N)cc1` displayed a pKa of 2.5. The compound `C[C@]12CC[C@H]3[C@@H](CCC4=CC(=O)CC[C@@]43C)[C@@H]1CC[C@@H]2O` gave a pKa of 4.48. `Cc1cc(Cl)c(N=C2NCCN2)c(Cl)c1` registered a pKa of 8.29. Then `Oc1nsc2c1CCNC2`, with 8.5; and `Ic1ccc(Nc2c3ccccc3nc3ccccc23)cc1`, with 6.9. Then `O=C1N=C(O)NC1(c1ccccc1)c1ccccc1`, with 8; and `BP(=O)(OC[C@H]1O[C@@H](n2cnc3c(N)nc(SC)nc32)[C@H](O)[C@@H]1O)OP(=O)(O)CP(=O)(O)O` (some centres not stated), with 8.4. The same measure for `O=C(O)c1coc2ccccc2c1=O`: 8.85; for `Cc1c(-c2noc(-c3ccc(OC(C)C)c(C#N)c3)n2)ccc2c1CCN(C(CO)CO)C2`: 7.3; for `COc1ccccc1Nc1c2ccccc2nc2ccccc12`: 7.74. On to `c1ccc(Nc2c3ccccc3nc3ccccc23)nc1`, for which the pKa came out at 6.32. As to `CC(NCCC(c1ccccc1)c1ccccc1)c1ccccc1` (configuration not stated), the pKa was found to be 9.04.

`CCCS(=O)(=O)Nc1ccc(Nc2c3ccccc3nc3ccccc23)cc1` gave a pKa of 7.2.

Compound `O=C(NCc1ccccc1)C1=CC2c3ccccc3C1c1ccccc12` had a pKa of -2.01. The same measure for `Cc1cc(Cl)cc(Cl)c1N=C1NCCN1`: 9.03; for `O=c1ccc(-c2ccc(S(=O)(=O)Nc3cccc4c3CCCC4)s2)n[nH]1`: -2.5; for `COc1cc(NS(C)(=O)=O)ccc1Nc1c2ccccc2nc2ccc(F)cc12`: 6.71. Then `CCN(CC)CCCN1c2cc(F)ccc2CCc2ccc(F)cc21.Cl`, with 7.6. The same measure for `Cc1cc(OCCN2CCOCC2)nn1-c1ccc2ccccc2c1`: 6.5; for `COC(=O)Nc1ccccc1Nc1c2ccccc2nc2ccccc12`: 7.24; for `Cc1cnc(NCCc2ccccc2)c(=O)n1CC(=O)NCc1ccc(C(=N)NO)s1`: 4.1. In turn, `Cc1ccc(NS(=O)(=O)Cc2ccccc2)c(=O)n1CC(=O)NCc1nc(CN)cs1` came in with a pKa of 7.4.

For the compound `COc1cccc(S(=O)(=O)Nc2cccn(CC(=O)NCc3nc(C(=N)N)cs3)c2=O)c1`, the pKa turned out to be 8.8. Take `Cc1ccc(NS(=O)(=O)Cc2ccccc2)c(=O)n1CC(=O)NCc1cnc(N)cn1`: the pKa is 2.7. The same measure for `CNC(=O)c1cccc2c(Nc3ccc(NS(C)(=O)=O)cc3OC)c3ccccc3nc12`: 6.36; for `Cc1cccc(Cl)c1N=C1NCCN1`: 9.4.

`CNS(=O)(=O)Cc1ccc2[nH]cc(CCN(C)C)c2c1` returned a pKa of 9.5. Compound `CC1=CN(c2ccc(S(N)(=O)=O)cc2)C(N2C=CN(C)C=C2)N1` (configuration not stated) yielded a pKa of 7.11. `O=C(O)c1ccc(-c2ccc(O[C@H]3O[C@H](CO)[C@@H](O)[C@H](O)[C@@H]3O)cc2)cc1` displayed a pKa of 3.88.

`N[C@@H]1C[C@]1(F)c1ccccc1` came in with a pKa of 6.98. In the case of `NC(=O)CCc1ccc(Nc2c3ccccc3nc3ccccc23)cc1`, the pKa stood at 7.63.

Take `O=[N+]([O-])c1cc(Cl)c(N=C2NCCN2)c(Cl)c1`: the pKa turned out to be 6.86.

Consider `c1ccc(-c2ncc[nH]2)cc1`, for which the pKa came to 6.48. The same measure for `Cc1ccc(S(=O)(=O)c2nc(N3CCc4ccccc4C3)sc2Cl)cc1`: -3.78; for `CNCCCC12CCC(c3ccccc31)c1ccccc12`: 10.5. In turn, `CC(=O)c1ccc(Nc2c3ccccc3nc3ccccc23)cc1` gave a pKa of 6.12. The same measure for `CNc1ncnc2c1ncn2Cc1ccccc1F`: 3.88; for `CN1CC[C@H](N(C)C(=O)N2CC(c3cc(F)ccc3F)=C[C@@]2(CO)c2ccccc2)[C@H](F)C1`: 7.6. `COC(=O)C(c1ccccc1)C1CCCCN1` (configuration not stated): the pKa worked out at 9.24. `CN(C)CCCN1c2ccccc2Sc2ccccc21` displayed a pKa of 9.4. `Nc1ccccn1` gave a pKa of 6.71.

The record behind these values is the pKa sets of Baltruschat and Czodrowski (2020).
